Experimental data: patent US20230364039A1, “Methods of Managing Side Effects of a Vasopressin Receptor Antagonist Therapy” (Emory University, priority 2020, published 2023)
Read-outs that look alike come from different tables or passages of the source. One block for each molecule: values may come before it.

Assays:
[1] = system: autosomal dominant polycystic kidney disease (ADPKD); details: cited from earlier work
[2] = system: rodents with nephrogenic diabetes insipidus; details: Efe et al., JCI Insight 2016; cited from earlier work
[3] = general statement on some AMPK activators; cited from earlier work
[4] = system: adenosine monophosphate activated protein kinase (AMPK); assay: AMPK activator potency and specificity (preliminary data)
tolvaptan treated rats = assay: Urine osmolality / urine concentrating ability in tolvaptan treated rats; assay type: in vivo; details: FIG. 1; for urine osmolality: rats on tolvaptan 10 mg/kg/day by gavage, AMPK activator 2.5, 5 and 10 mg/kg/day up to 14 days, vs tolvaptan only
Procedure: Tolvaptan (10 mg/kg/day) was delivered by gavage feeding daily. AMPK activator was given at 2.5, 5 and 10 mg/kg/day for up to 14 total days, with daily urine collection for osmolality determination. Light bars: Osmolality in rats receiving tolvaptan only. Black bars: treated rats. Mean±s.e., n=4-5 for lower doses, 8-10 for 10 mg/kg/day, *=p<0.05.

[5] = system: vasopressin type 2 receptor knockout mouse model; assay: Urine concentrating ability in vasopressin type 2 receptor knockout mouse model; assay type: in vivo
[6] = Hypoglycemia liability of AMPK activators; assay type: in vivo; details: preliminary data

Structure (SMILES): Cc1ccccc1C(=O)Nc1ccc(C(=O)N2CCCC(O)c3cc(Cl)ccc32)c(C)c1 (stereo not shown) [tolvaptan, N-(4-(7-chloro-5-hydroxy-2,3,4,5-tetrahydro-1H-benzo[b]azepine-1-carbonyl)-3-methylphenyl)-2-methylbenzamide]
progression of renal cyst development ([1]; ADPKD): slows the progression of renal cyst development
side effect: urine volume ([1]; tolvaptan treatment, polyuria defined as greater than 2.5 L or 3 L over 24 hours in adults): overt polyuria

Structure (SMILES): CN(C)C(=N)N=C(N)N [metformin]
urine concentration [2]: improves urine concentration
hypoglycemia [3]: risk of developing hypoglycemia

potency and specificity as AMPK activator [4]: potent, specific
hypoglycemia [6]: does not cause hypoglycemia
Structure (SMILES): NC(=O)C1(CCCCCCCCCCCCC2(C(N)=O)CC2)CC1 [NP-5033, 1,1′-(dodecane-1,12-diyl)bis(cyclopropane-1-carboxamide)]
urine osmolality (tolvaptan treated rats): increases urine osmolality
urine osmolality (tolvaptan treated rats; listed as AMPK activator): urine osmolality increases
urine concentrating ability (tolvaptan treated rats; tolvaptan treated rats): improvement in urine concentrating ability
urine concentrating ability [5]: improvement in urine concentrating ability
